This note sets out measurements from patent publication US9708247B2, “Modulators of the eIF2alpha pathway” (The Regents of the University of California, priority 2013, dated 2017).

In this assay the test system is ATF4 luciferase reporter. As to the kind of experiment: ATF4 luciferase reporter assay (Cell-luc) in HEK293T cells. Format: cell-based, human. From the text:
FIGS. 1A-1C. […]
To identify inhibitors of PERK signaling, we engineered a reporter that allows monitoring of PERK activation in living cells. To this end, we constructed a retroviral vector containing the open-reading frame of firefly luciferase fused to the 5′UTR of ATF4 mRNA (FIG. 1A), which contains two short open-reading frames (uORFs) that control ATF4 translation in a stress-dependent manner. After infection, we established a HEK293T cell line harboring the stably integrated reporter. […] This format was used to screen 106,281 compounds covering a wide chemical space. We identified 460 hits (0.43%) (FIG. 1C), which were further validated in an 8-point dose-response assay using the same reporter. We further triaged the compounds by discarding inhibitors that also affected the IRE1 branch of the UPR using an XBP1-luciferase splicing reporter. […] We next used an orthogonal secondary screen that employed a different reporter (bi-cistronic ATF4-dGFPIRES-mCherry) stably integrated into a different cell line (U20S cells). The read-out of this latter screen was microscopy-based, which allowed us to simultaneously assess acute toxicity by cell counting, further reducing the number of viable hits to 77. As a tertiary screen, we tested compounds for their ability to inhibit ER stress-elicited induction of endogenous ATF4 by Western blot analysis. Twenty-eight compounds passed this test and were analyzed further.
ATF4 reporters were constructed by fusing the human full-length ATF4 5′-UTR (NCBI Accession BC022088.2) in front of the firefly luciferase (FLuc) or a destabilized eGFP (dEGFP) coding sequences lacking the initiator methionine.
The ATF4-FLuc reporter was generated by cloning a PCR-product containing the ATF4 full-length 5′-UTR (from +1 position a the transcription start site down to one nucleotide after the terminator codon of the second uORF) flanked by KpnI/XhoI and BglII sites at the 5′ and 3′ ends, respectively, into the KpnI-BglII sites of pCAX-F-XBP1-Luc. The resulting construct, pCAX-ATF4-FLuc, was then digested with BamHI, blunted with T4 DNA polymerase, and then digested with XhoI. The resulting fragment was then subcloned into the retroviral expression vector pLPCX (Clontech) after digesting it with HindIII, blunting with T4 DNA polymerase and then digesting with XhoI to generate pLPCX-ATF4-FLuc (DAA-312). DAA-312 was used to produce recombinant retroviruses using standard methods and the resulting viral supernatant was used to transduce HEK293T cells, which were then subsequently selected with puromycin to generate a stable cell line employed in the primary screen.
HEK293T cells carrying the ATF4 luciferase reporter were plated on poly-lysine coated 384 well plates (Greiner) at 30,000 cells per well. […] Luminescence was measured using One Glo (Promega) as specified by the manufacturer. […] Thus, these were considered unique to the PERK branch and were cherry-picked for further analysis.
(In general: A reporter such as luciferase makes a cellular process visible.)

Where [1] appears, read: Homo sapiens, HEK-293T, ATF4 luciferase reporter, HEK293T cells, read-out: IC50 (nM) Cell-luc.
[2] abbreviates: ATF4 luciferase reporter, HEK293T cells, read-out: IC50 (nM) Cell-luc.

Read-outs that look alike come from different tables or passages of the source.

Regarding `C[Si](C)(C)C#Cc1cc(OCC(=O)N[C@H]2CC[C@H](NC(=O)COc3ccc(Cl)cc3)CC2)ccc1Cl` [compound 914583], the half-maximal inhibitory concentration (IC50) (as a rule, the concentration that gives 50% inhibition) under setting [1] turned out to be 12 nM.
For `C#CCN(C(=O)COc1ccc(Cl)cc1)[C@H]1CC[C@H](NC(=O)COc2ccc(Cl)cc2)CC1` [755854.2], the IC50 under setting [2] came out at 440 nM.
`O=C(COc1ccc(Cl)cc1)N[C@H]1C[C@@H](NC(=O)COc2ccc(Cl)cc2)C1` [compound 755856]: the IC50 under setting [1] turned out to be 1000 nM.
Turning to `CC(=O)c1cc(Cl)ccc1OCC(=O)N[C@H]1CC[C@H](NC(=O)COc2ccc(Cl)cc2)CC1` [compound 873972], the IC50 under setting [1] is greater than 10000 nM.
Consider `C#C[C@]1(NC(=O)COc2ccc(Cl)cc2)CC[C@@H](NC(=O)COc2ccc(Cl)cc2)CC1` [compound 757132], for which, under setting [1], the half-maximal inhibitory concentration (IC50) amounted to 3000 nM.
With `O=C(COc1ccc(Cl)cc1)N[C@H]1C[C@H](NC(=O)CSc2ccccc2)C1` [compound 811773], the IC50 under setting [1] is greater than 10000 nM.
As for `Clc1ccccc1CNC[C@H]1CC[C@H](CNCc2ccccc2Cl)CC1` [compound 874805], the half-inhibitory concentration (IC50) under setting [1] was greater than 10000 nM.
For the molecule `O=C(COc1ccc(Cl)cc1)N[C@H]1CC[C@H](NC(=O)COc2ccc(Cl)cc2)CC1` [Trans-ISRIB, 2-(4-Chlorophenoxy)-N-[(1r, 4r)-4-[2-(4-chlorophenoxy)acetamido]cyclohexyl]acetamide], the “potency of trans-ISRIB relative to cis-ISRIB” value (ATF4-luciferase reporter) was 100 fold. Further, the IC50 (cultured HEK293T cells, 2 μg/ml tunicamycin, 7 h, synthesized isomers, read-out: IC50, inhibition of the ATF4-luciferase reporter) worked out at 5 nM.
For the molecule `C#Cc1ccc(OCC(=O)N[C@H]2CC[C@H](NC(=O)COc3ccc(Cl)cc3)CC2)cc1` [compound 916353], under setting [1], the IC50 came to 14 nM.
Turning to `C#Cc1cc(OCC(=O)N[C@H]2CC[C@H](NC(=O)COc3ccc(Cl)cc3)CC2)ccc1Cl` [compound 914584], under setting [1], the half-inhibitory concentration (IC50) amounted to 12 nM.
As for `O=C(COc1ccc(Cl)c(C(F)(F)F)c1)N[C@H]1CC[C@H](NC(=O)COc2ccc(Cl)c(C(F)(F)F)c2)CC1` [compound 957887], the 50% inhibitory concentration (IC50) under setting [1] came to 11 nM.
Same read-out and setting: as for `C#Cc1ccc(OCC(=O)N[C@H]2CC[C@H](NC(=O)COc3ccc(Cl)c(C4(C(F)(F)F)N=N4)c3)CC2)cc1` [compound 955278], the figure is greater than 10000 nM; as for `O=C(COc1ccc(Cl)cc1)N[C@H]1CC[C@H](NC(=O)COc2ccc(Cl)c(Cl)c2)CC1` [compound 874800], 2 nM; as for `O=C(COc1ccc(Cl)c(F)c1)N[C@H]1CC[C@H](NC(=O)COc2ccc(Cl)c(F)c2)CC1` [compound 957888], 0.6 nM.
Same read-out and setting: as for `C[Si](C)(C)C#Cc1ccc(OCC(=O)N[C@H]2CC[C@H](NC(=O)COc3ccc(Cl)cc3)CC2)cc1` [compound 916348], the figure is 160 nM; as for `O=C(COc1ccc(Cl)cc1)N[C@H]1CC[C@H](NC(=O)COc2ccc(C(F)(F)F)cc2)CC1` [compound 757258], 10 nM.
Regarding `C#CCN(C(=O)COc1ccc(Cl)cc1)[C@H]1CC[C@H](NC(=O)COc2ccc(Cl)cc2)CC1` [755854.4], the half-maximal inhibitory concentration (IC50) under setting [2] stood at 64 nM.
With `N=C(COc1ccc(Cl)c(Cl)c1)N[C@H]1CC[C@H](NC(=O)COc2ccc(Cl)c(Cl)c2)CC1` [compound 957914], under setting [1], the IC50 is 40 nM.
For the molecule `C#Cc1ccc(OCC(=O)N[C@H]2CC[C@H](NC(=O)COc3ccc(N=[N+]=[N-])cc3)CC2)cc1` [compound 957866], the IC50 under setting [2] amounted to 232 nM.
For the molecule `O=C(COc1ccc(Cl)c([N+](=O)[O-])c1)N[C@H]1CC[C@H](NC(=O)COc2ccc(Cl)c([N+](=O)[O-])c2)CC1` [compound 957889], the IC50 under setting [2] was found to be 11 nM.
With `O=C(NC[C@H]1CC[C@H](CNC(=O)Oc2ccc(Cl)cc2)CC1)Oc1ccc(Cl)cc1` [compound 913815], the concentration for half-maximal inhibition (IC50) under setting [1] was greater than 10000 nM.
For `C#Cc1ccc(OCC(=O)N[C@H]2CC[C@H](NC(=O)COc3ccc(C4(C(F)(F)F)N=N4)cc3)CC2)cc1` [compound 916751], under setting [1], the half-inhibitory concentration (IC50) is greater than 10000 nM.
For the molecule `CC(C)c1ccc(OCC(=O)N[C@H]2CC[C@H](NC(=O)COc3ccc(Cl)cc3)CC2)cc1` [compound 874798], the IC50 under setting [1] is 200 nM.
As to `O=C(COc1ccc(Cl)cc1)NCc1ccc(CNC(=O)COc2ccc(Cl)cc2)cc1` [compound 874796], the IC50 under setting [1] is greater than 10000 nM.
For `N#Cc1ccc(OCC(=O)N[C@H]2CC[C@H](NC(=O)COc3ccc(C#N)cc3)CC2)cc1` [compound 757095], the IC50 under setting [1] was greater than 10000 nM.
As to `O=C(COc1ccc(Cl)cc1)N[C@H]1CC[C@H](NC(=O)OCc2ccc(Cl)cc2)CC1` [compound 874797], the IC50 under setting [1] is 122 nM.
Consider `O=C(COc1ccc(O)cc1)N[C@H]1CC[C@H](NC(=O)COc2ccc(Cl)cc2)CC1` [compound 751597], for which, under setting [1], the IC50 is greater than 10000 nM.
On the same count and under the same terms, as for `C[C@@H]1NC(=O)N[C@@H]1CCCCCC(=O)NCCOCCOCCOCCn1cc(-c2cc(OCC(=O)N[C@H]3CC[C@H](NC(=O)COc4ccc(Cl)cc4)CC3)ccc2Cl)nn1` [compound 916728], the figure is 1270 nM; as for `O=C(COc1ccc(Cl)cc1)NCc1cccc(NC(=O)COc2ccc(Cl)cc2)c1` [compound 873882], greater than 10000 nM.
Regarding `N=C(COc1ccc(Cl)cc1)N[C@H]1CC[C@H](NC(=O)COc2ccc(Cl)cc2)CC1` [757264.2], the IC50 under setting [2] was determined as 34 nM.
Take `C#CCN(C(=O)COc1ccc(Cl)cc1)[C@H]1CC[C@H](NC(=O)COc2ccc(Cl)cc2)CC1` [755854.1]: the IC50 under setting [2] is 2700 nM.
In the case of `O=C(Cc1ccc(Cl)cc1)NCc1ccc(CNC(=O)Cc2ccc(Cl)cc2)cc1` [compound 885253], the IC50 under setting [1] was greater than 10000 nM.
For the molecule `O=C(COc1ccc(Cl)cc1)Nc1ccc(NC(=O)COc2ccc(Cl)cc2)cc1` [compound 102509], under setting [1], the half-maximal inhibitory concentration (IC50) is 53 nM.
Turning to `O=C(COc1ccc(Cl)cc1)N[C@H]1CC[C@H](NC(=O)COc2cc(F)cc(F)c2)CC1` [compound 912564], the IC50 under setting [1] is 220 nM.
For `O=C(N[C@H]1CC[C@H](NC(=O)OCc2ccc(Cl)cc2)CC1)OCc1ccc(Cl)cc1` [compound 885257], the half-maximal inhibitory concentration (IC50) under setting [1] was greater than 10000 nM.
Turning to `O=C(COc1ccc(Cl)cc1)N[C@H]1CC[C@H](NC(=O)COc2ccc(Cl)cc2C(=O)c2ccccc2)CC1` [compound 873973], the IC50 under setting [1] was greater than 10000 nM.
In the case of `O=C(COc1ccc(Cl)cc1)N[C@H]1CC[C@H](NC(=O)COc2ccc(Cl)cc2)CC1` [750213.2], the half-maximal inhibitory concentration (IC50) under setting [1] amounted to 3 nM.
Take `O=C(CCc1ccc(Cl)cc1)N[C@H]1CC[C@H](NC(=O)CCc2ccc(Cl)cc2)CC1` [compound 754125]: under setting [1], the IC50 was greater than 10000 nM.
Take `O=C(COc1ccc(Cl)cc1)N[C@H]1CC[C@H](N(CCOc2ccc(Cl)cc2)CCOc2ccc(Cl)cc2)CC1` [compound 835196]: the half-inhibitory concentration (IC50) under setting [1] came to 1400 nM.
Turning to `O=C(COc1ccc(F)cc1)N[C@H]1CC[C@H](NC(=O)COc2ccc(Cl)cc2)CC1` [compound 757257], the IC50 under setting [1] amounted to 48 nM.
Take `N=C(COc1ccc(Cl)c(F)c1)N[C@H]1CC[C@H](NC(=O)COc2ccc(Cl)c(F)c2)CC1` [compound 957916]: under setting [2], the half-maximal inhibitory concentration (IC50) is 122 nM.
In the case of `O=C(COc1ccc(Cl)cc1)N[C@H]1CC[C@H](CNC(=O)Oc2ccc(Cl)cc2)CC1` [compound 885255], the IC50 under setting [1] worked out at 30 nM.
With `CC(Oc1ccc(Cl)cc1)C(=O)N[C@H]1CC[C@H](NC(=O)COc2ccc(Cl)cc2)CC1` (stereo partly drawn) [compound 874799], the concentration for half-maximal inhibition (IC50) under setting [1] is 210 nM.
`O=C(COc1ccc(Cl)c(Cl)c1)N[C@H]1CC[C@H](NC(=O)COc2ccc(Cl)c(Cl)c2)CC1` [compound 957885]: the IC50 under setting [1] stood at 0.8 nM.
Take `O=C(COc1ccc(Cl)cc1)N[C@H]1C[C@H](NC(=O)CSc2ccc(Cl)cc2)C1` [compound 811771]: the concentration for half-maximal inhibition (IC50) under setting [1] is greater than 10000 nM.
Still for that read-out and setting: in the case of `Cc1ccc(CC(=O)N[C@H]2CC[C@H](NC(=O)COc3ccc(Cl)cc3)CC2)cc1` [compound 751595] it was greater than 10000 nM; in that of `O=C(Cc1ccc(Cl)cc1)NC[C@H]1CC[C@H](NC(=O)COc2ccc(Cl)cc2)CC1` [compound 885256], 152 nM; in that of `C[S+]([O-])c1ccc(OCC(=O)N[C@H]2CC[C@H](NC(=O)COc3ccc(Cl)cc3)CC2)cc1` (stereo partly drawn) [compound 757260], greater than 10000 nM.
Regarding `C[S+]([O-])c1ccc(OCC(=O)N[C@H]2CC[C@H](NC(=O)COc3ccc([S+](C)[O-])cc3)CC2)cc1` (stereo partly drawn) [compound 757096], the IC50 under setting [1] is greater than 10000 nM.
Take `O=C(COc1ccc(Cl)cc1)N[C@H]1CC[C@H](NC(=O)COc2ccc(OCc3ccccc3)cc2)CC1` [compound 751592]: the IC50 under setting [1] is greater than 10000 nM.
